According to publication PMC7955127, “Preclinical small molecule WEHI-7326 overcomes drug resistance and elicits response in patient-derived xenograft models of human treatment-refractory tumors” (Cell Death & Disease, 2021):

Assays:
[1] = tested on: LIM2537 (colon carcinoma) xenograft; test: LIM2537 tumor xenograft in nude mice; assay type: in vivo, BALB/c nude mice; settings: i.p. three times weekly
Experimental: Tumor cell lines LIM2537, U87MGΔ2–7EGFR or H1437 were collected by trypsinization, counted and injected at 5 × 10^6 cells/ site subcutaneously on both flanks of BALB/c nude mice. Treatment with vehicle control or WEHI-7326 at given dose was initiated after 5 days. Drug or vehicle (100 μl) was injected intraperitoneally three times weekly. Control group and treatment group consisted of 8 mice each. Tumors were measured twice weekly with calipers. Tumor volumes were estimated using the modified ellipsoid formula V = 1/2 (length × width^2). The experiments were terminated when tumors in the control group started ulcerating or exceeded 17 mm in length, in line with the LICR/DoS Animal Ethics Committee guidelines (11/05 A).

[2] = Intravenous pharmacokinetics and tolerability in mice; assay type: in vivo, male Swiss Outbred mice
Experimental: Briefly, intravenous pharmacokinetics and systemic exposure of WEHI-7326 were assessed in non-fasted male Swiss Outbred mice. WEHI-7326 was administered via intravenous bolus injection (10 ml/kg dose volume) and blood samples were collected at 1, 2, 5, 15 and 30 min and 1, 2, 4, 7.5 and 24 h post-dose (n = 2 mice per time point). A maximum of two samples were obtained from each mouse, with samples being taken either via submandibular bleed (approximately 120 μl; conscious sampling) or terminal cardiac puncture (0.6 ml; while mice were anaesthetized using inhaled Isoflurane). Once collected, blood samples were centrifuged immediately, supernatant plasma was removed, and stored in −20 °C until analysis by LC-MS
Parameters were calculated with standard calculations: PlasmaCL=DoseIV/AUCIVVSS=AUMCIV/AUCIV*PlasmaCL
With plasma CL = plasma clearance, AUCIV = area under the plasma concentration vs. time profile, VSS = apparent volume of distribution at steady state, AUMCIV = area under the first moment of the plasma concentration versus time profile from time zero to infinity after IV administration.
a Measured physicochemical and solubility data for WEHI-7326. […] Microsomal-predicted EH values are included.

MDA-MB-231 = test: Cell cycle analysis (G2/M arrest, PI staining, flow cytometry), MDA-MB-231; assay type: cell-based; settings: Homo sapiens, MDA-MB-231, read-out: EC50 (G2/M arrest)
Experimental: Fig. 2 Antimitotic activity of WEHI-7326: cancer cell lines and effects on tubulin polymerization. a Dose-dependent antimitotic activity of WEHI-7326, nocodazol and taxol in tumor cell lines SW480 (colorectal) and MDA-MB-231 (breast). Data are presented as percentage of cells in G2/M after overnight incubation with increasing concentrations of inhibitors and PI staining followed by flow cytometry analysis. Mean average of 3 independent experiments ±SEM. b EC50 values (nM) for G2/M arrest on SW480 and MDA-MB-231 cell lines, given as mean average of 3 independent experiments ±SEM. c Western blot analysis of mitotic arrest in SW480 and MDA-MB-231 cells treated with EC50 concentrations of WEHI-7326 or Paclitaxel as marked by expression of phosho-S10 Histone H3 (p-HH3 S10), at different timepoints post treatment. Expression of β-actin provided as loading control. d Cell cycle analysis of LIM1899 cells 72 h post treatment with increasing concentrations of WEHI-7326 as measured by PI staining for DNA content followed by flow cytometry analysis. Sub-G1 represents apoptotic fractions and >4 N cell fractions of mitotic slippage. e Immunofluorescence confocal microscopy of tubulin polymerization in SW480 cells treated by various agents. […] Representative blot of 3 independent experiments. g Tubulin polymerization was assessed in vitro over time using a fluorescence-based tubulin polymerization assay (BK011P). […] Polymerization was measured by excitation at 360 nm and emission at 420 nm. […]
Cells in log growth were supplemented with fresh medium with either vehicle (control) or compound at the stated final concentrations. […] After 1 h incubation at room temperature in the dark, cells were analyzed on a FACScan (Becton and Dickinson) in CellQuest. The percentage of cells in each phase of the cell cycle was determined using ModFit software (Verity, http://www.vsh.com). Early and late apoptotic responses elicited by WEHI-7326 were assessed using Dead Cell Apoptosis Kit (ThermoFisher Scientific) with Annexin V FITC and PI following manufacturer’s instructions. […]

H1437 = test: Cell growth inhibition assay, H1437; assay type: cell-based; settings: Homo sapiens, NCI-H1437; H1437, non-small cell lung carcinoma; 72 h viability assay, CellTiterGlo; mean of 3 ± SEM; read-out: IC50 (inhibition of cellular proliferation)
Experimental: Cells were plated at a density of between 500 to 5000 cells per well for adherent cell lines depending on doubling time, and 15,000 cells per well for lymphoblastic leukemia cell lines, in a 96-well plate in 200 μl of growth media. Plates were incubated overnight at 37 °C before adding the inhibitors. Inhibitors were serially diluted from the stock solutions in complete medium and added to the cells. […] Cell viability was assessed by the AlamarBlue (Invitrogen) or CellTiterBlue/Glo (Promega) method according to manufacturer’s instructions. The curve fits and IC50 values were generated in PRISM (GraphPad, San Diego, CA).

[3] = mouse, plasma, iv, male Swiss outbred mice, i.v. 15 mg/kg

For COc1ccc(CNc2nc(NCc3ccc(CN)cc3)nc(NN3CC(=O)NC3=O)n2)cc1 [WEHI-7326], the Tumor growth [1] was “effective in reducing tumor growth”, the Adverse reactions ([2]; Swiss outbred mice, i.v., up to a dose of 30 mg/kg) was “no adverse reactions or compound-related side effects” and the clearance [2, 3] was 53 mL/min/kg. It also gave a half-life [2, 3] of 6.3 h, a Vd ([2]; mouse, plasma, iv, male Swiss outbred mice, i.v. 15 mg/kg, read-out: Apparent volume of distribution) of 4.7 L/kg and an EC50 (MDA-MB-231) of 19 ± 2.2 nM. For the same compound, the IC50 (H1437) was 29.7 ± 10.8 nM.
